Target: Phosphodiesterase 4 (Bos taurus)
Experiment: In vitro inhibition of bovine smooth muscle phosphodiesterase 4

Structure (SMILES) | IC50
COc1ccc(-c2ccc(=O)n(CCCCCc3ccccc3)n2)cc1OC | 0.9 nM
COc1ccc(-c2cc(Cc3ccccc3)c(O)nn2)cc1OC | 8000 nM
COc1ccc(-c2ccc(O)nn2)cc1OC | 2000 nM
COc1ccc(-c2ccc(=O)n(Cc3ccccc3)n2)cc1OC | 60 nM
COc1ccc(-c2ccc(=O)n(CCCCCCN)n2)cc1OC | 20 nM
COc1ccc(-c2ccc(=O)n(CCCCCCc3ccccc3)n2)cc1OC | 80 nM
COc1ccc(-c2ccc(=O)n(CCCc3ccccc3)n2)cc1OC | 20 nM
COc1ccc(-c2cc(CCCc3ccccc3)c(O)nn2)cc1OC | > 10000 nM
COc1ccc(-c2ccc(=O)n(CCCCCCN=C(N)N)n2)cc1OC | 60000 nM
